In patent US6362174B1, “Reduced dipeptide analogues as calcium channel antagonitsts” (Warner-Lambert Company, priority 1998, dated 2002):
Counter-ions that a name gives are not always drawn. Blank lines part the entries; values can stand above or below the compound they belong to.

Columns and labels:
N-type Ca2+ channel = biological target: T1, N-type Ca2+ channel (Homo sapiens, UniProt Q00975); test: Measurement of N-type Ca2+ channel blocking potencies in IMR32 cells using the fluorescent Ca2+ indicator Indo-1; format: cell-based; details: IMR-32 cells; for IC50: K+ depolarization, 5 μM nitrendipine to block L-type channels
T1 construct: host or cells: IMR-32 human neuroblastoma cells, differentiated with dibutyryl cAMP and bromodeoxyuridine
Protocol: Measurement of N-type Ca^2+ Channel Blocking Potencies of Compounds in IMR32 Cells Using the Fluorescent Ca^2+ Indicator Indo-1
IMR-32 cells are a human tumoral cell line of neural origin. […] Calcium flux into these cells may be induced by stimulation with elevated potassium concentrations. The L-channel component of calcium flux may be blocked by adding 5 μM nitrendipine. The remaining component of calcium entry into the IMR-32 cells is due to calcium flux through N-type calcium channels. Intracellular calcium concentrations are measured using the fluorescent calcium indicator Indo-1. The effect of drug concentration on calcium uptake is studied.
The IMR-32 cell line was obtained from the American Type Culture Collection (Rockville, Md.). Cells were grown in Eagle's Minimum Essential Medium with Earle's salts supplemented with 10% fetal bovine serum, 2 mM L-Gln and antibiotic/antimicotic mixture (Gibco). At approximately 80% confluency, differentiation was induced by the addition of 1 mM dibutyryl cAMP and 2.5 μM bromodeoxyuridine to the medium. After 7 to 13 days of differentiation, cells were detached using 0.5 mM EDTA and loaded with 5 μM Indo-1 acetoxymethyl ester (Molecular Probes, Eugene, Oreg.) at […] for 45 minutes. Loaded cells were washed twice, resuspended (˜10^7 cells/mL) in assay buffer (10 mM HEPES/Tris pH 7.4 in Hank's Balanced Salt Solution without bicarbonate or phenol red containing 0.5% bovine serum albumin) and kept on ice until use. Fluorescence measurements were carried out in a Photon Technology International (PTI, South Brunswick, N.J.) Model RF-F3004 spectrofluorometer with dual emission monochromators using excitation at 350 nm and emission at 400 and 490 nm. The instrument was equipped with a thermostated cuvette holder with stirring capabilities as well as with a computer-controlled pump that allowed for reagent addition during measurement. Instrument control and data collection was done by PTI's OSCAR software running on an IBM compatible computer. Different concentrations of the test compounds (60 μL in dimethyl sulfoxide) were added to 5.94 mL of assay buffer containing approximately 3×10^6 loaded cells, and 5 μM Nitrendipine (in 30 μL EtOH) to block L-type Ca^2+ channels. Samples were incubated for 10 minutes at 30° C. and then aliquoted into three 10×10 mm disposable acrylic cuvettes. Emission signals at 400 and 490 nm were acquired from each cuvette at 30° C. for 50 seconds. At 20 seconds after the start of reading, cells were depolarized by the addition of 160 μL of stimulation solution (1M KCl, 68 mM CaCl2) to the cuvette via the computer-controlled pump. Ratio of dual emission signals (400 nm/490 nm), which is proportional to intracellular Ca^2+ concentration, was plotted against time, and the difference between maximal response after stimulation and basal value (before stimulation) was determined. Values obtained in this way were plotted as a function of drug concentration. IC50 values of test compounds were calculated by fitting a 4-parameter logistic function to the data using the least squares method.

DBA/2 mice = test: Audiogenic seizure model in DBA/2 mice; format: in vivo; details: for protection: 30 mg/kg, 15 minutes posttreatment time
Protocol: Audiogenic Seizure Model in DBA/2 Mice
Compounds of the present invention were dissolved in water using 10% (weight/volume) Emulphor (GAF Corp., Wayne, N.J.) surfactant. Substances were administered by intravenous injection into the retro-orbital venous sinus. All testing was performed 15 minutes or 45 minutes after drug injection. All the male mice, 3 to 4 weeks old, were obtained from Jackson Laboratories, Bar Harbour, Me. Immediately before anticonvulsant testing, mice were placed upon a wire mesh, 4 inches square suspended from a steel rod. […] Any mouse falling from the wire mesh was scored as ataxic.
Mice were placed into an enclosed acrylic plastic chamber (21 cm height, approximately 30 cm diameter) with a high-frequency speaker (4 cm diameter) in the center of the top lid. An audio signal generator (Protek model B-810) was used to produce a continuous sinusoidal tone that was swept linearly in frequency between 8 kHz and 16 kHz once each 10 msec. The average sound pressure level (SPL) during stimulation was approximately 100 dB at the floor of the chamber. Mice were placed within the chamber and allowed to acclimatize for 1 minute. DBA/2 mice in the vehicle-treated group responded to the sound stimulus (applied until tonic extension occurred, or for a maximum of 60 seconds) with a characteristic seizure sequence consisting of wild running followed by clonic seizures, and later by tonic extension, and finally by respiratory arrest and death in 80% or more of the mice. In vehicle-treated mice, the entire sequence of seizures to respiratory arrest lasts approximately 15 to 20 seconds.
The incidence of all the seizure phases in the drug-treated and vehicle-treated mice was recorded, and the occurrence of tonic seizures were used for calculating anticonvulsant ED values by probit analysis. Mice were used only once for testing at each time and dose point.

[1] = 10 mg/kg IV, 15 minutes post treatment
[2] = 30 mg/kg IV, 15 minutes post treatment
[3] = 30 mg/kg IV, 45 minutes post treatment
[4] = 10 mg/kg IV, 15 minutes post treatment, dihydrochloride
[5] = 10 mg/kg IV, 45 minutes post treatment, dihydrochloride

T1 sequence (Q00975 whole entry): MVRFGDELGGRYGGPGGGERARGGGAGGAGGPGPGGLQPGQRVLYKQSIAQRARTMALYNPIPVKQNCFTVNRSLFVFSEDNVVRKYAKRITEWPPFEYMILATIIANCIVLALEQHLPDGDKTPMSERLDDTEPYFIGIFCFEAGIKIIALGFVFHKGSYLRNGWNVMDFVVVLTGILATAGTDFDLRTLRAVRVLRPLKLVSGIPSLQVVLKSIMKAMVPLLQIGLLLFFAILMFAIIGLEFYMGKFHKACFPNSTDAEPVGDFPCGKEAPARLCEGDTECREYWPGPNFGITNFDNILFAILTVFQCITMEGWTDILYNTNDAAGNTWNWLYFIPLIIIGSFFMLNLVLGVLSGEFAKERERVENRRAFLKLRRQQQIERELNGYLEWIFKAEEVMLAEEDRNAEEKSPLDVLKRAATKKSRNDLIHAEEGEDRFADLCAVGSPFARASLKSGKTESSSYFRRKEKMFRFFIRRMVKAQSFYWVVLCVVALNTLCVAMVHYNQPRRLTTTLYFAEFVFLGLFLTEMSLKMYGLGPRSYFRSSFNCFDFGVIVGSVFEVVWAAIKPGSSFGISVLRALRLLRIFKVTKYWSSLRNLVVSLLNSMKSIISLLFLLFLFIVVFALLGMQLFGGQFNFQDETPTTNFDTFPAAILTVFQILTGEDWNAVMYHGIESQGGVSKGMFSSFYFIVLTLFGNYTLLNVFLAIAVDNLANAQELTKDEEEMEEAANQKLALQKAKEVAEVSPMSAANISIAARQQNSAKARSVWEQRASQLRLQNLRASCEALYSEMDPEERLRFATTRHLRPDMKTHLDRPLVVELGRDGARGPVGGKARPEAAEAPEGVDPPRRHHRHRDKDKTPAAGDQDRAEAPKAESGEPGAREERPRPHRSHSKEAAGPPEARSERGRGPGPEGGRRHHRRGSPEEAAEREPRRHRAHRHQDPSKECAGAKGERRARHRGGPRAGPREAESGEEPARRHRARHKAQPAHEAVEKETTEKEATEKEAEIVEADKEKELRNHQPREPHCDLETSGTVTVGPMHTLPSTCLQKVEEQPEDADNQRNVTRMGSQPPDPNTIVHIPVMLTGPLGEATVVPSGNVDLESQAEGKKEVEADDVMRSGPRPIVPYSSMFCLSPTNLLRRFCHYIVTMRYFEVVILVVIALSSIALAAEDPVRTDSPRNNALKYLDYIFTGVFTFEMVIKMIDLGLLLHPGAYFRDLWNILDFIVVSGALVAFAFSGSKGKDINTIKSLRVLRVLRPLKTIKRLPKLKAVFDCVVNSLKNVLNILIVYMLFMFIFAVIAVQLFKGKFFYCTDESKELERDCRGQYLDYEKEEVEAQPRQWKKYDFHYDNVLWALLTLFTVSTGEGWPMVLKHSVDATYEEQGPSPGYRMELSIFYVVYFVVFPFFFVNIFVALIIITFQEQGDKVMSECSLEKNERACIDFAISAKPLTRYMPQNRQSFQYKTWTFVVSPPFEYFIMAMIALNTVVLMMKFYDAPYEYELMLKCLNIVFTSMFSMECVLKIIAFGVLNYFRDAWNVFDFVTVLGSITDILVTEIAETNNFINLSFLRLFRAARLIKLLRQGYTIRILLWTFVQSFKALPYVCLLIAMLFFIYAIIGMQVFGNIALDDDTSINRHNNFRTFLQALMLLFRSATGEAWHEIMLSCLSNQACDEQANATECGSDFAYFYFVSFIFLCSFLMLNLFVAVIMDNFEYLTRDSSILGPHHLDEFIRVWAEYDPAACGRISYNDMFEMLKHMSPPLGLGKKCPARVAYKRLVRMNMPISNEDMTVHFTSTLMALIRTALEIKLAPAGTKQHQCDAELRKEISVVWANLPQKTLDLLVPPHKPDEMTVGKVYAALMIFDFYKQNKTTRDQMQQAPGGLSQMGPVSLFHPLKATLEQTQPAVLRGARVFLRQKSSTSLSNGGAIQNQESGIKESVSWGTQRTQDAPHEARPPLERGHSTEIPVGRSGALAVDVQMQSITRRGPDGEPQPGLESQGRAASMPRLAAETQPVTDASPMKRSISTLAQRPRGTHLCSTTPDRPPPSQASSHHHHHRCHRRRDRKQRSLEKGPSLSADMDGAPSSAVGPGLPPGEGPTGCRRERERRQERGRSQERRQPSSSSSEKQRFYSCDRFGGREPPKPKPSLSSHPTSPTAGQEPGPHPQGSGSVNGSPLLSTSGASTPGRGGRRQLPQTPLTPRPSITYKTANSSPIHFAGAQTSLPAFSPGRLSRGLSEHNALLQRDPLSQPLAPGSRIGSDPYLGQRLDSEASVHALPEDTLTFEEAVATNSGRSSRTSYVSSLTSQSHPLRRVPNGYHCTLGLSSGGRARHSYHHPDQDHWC
T1 sequence (Q02641 whole entry partner): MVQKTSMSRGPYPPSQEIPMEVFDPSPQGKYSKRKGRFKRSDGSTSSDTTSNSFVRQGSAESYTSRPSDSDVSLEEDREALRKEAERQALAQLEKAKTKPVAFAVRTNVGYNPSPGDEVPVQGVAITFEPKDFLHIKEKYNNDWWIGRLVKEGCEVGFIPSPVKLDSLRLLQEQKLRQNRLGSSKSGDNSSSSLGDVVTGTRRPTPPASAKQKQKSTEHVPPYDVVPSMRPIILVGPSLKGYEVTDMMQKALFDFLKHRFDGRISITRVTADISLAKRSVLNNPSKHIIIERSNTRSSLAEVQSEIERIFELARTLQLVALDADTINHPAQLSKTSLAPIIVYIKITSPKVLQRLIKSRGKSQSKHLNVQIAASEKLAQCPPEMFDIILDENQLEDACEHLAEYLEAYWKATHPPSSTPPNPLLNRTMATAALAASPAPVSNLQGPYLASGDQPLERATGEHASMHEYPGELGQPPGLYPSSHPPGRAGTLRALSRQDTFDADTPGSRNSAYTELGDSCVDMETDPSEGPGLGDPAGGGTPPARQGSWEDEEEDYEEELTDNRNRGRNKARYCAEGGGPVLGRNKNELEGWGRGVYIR
T1 sequence (P54289 25-956 partner limits assumed): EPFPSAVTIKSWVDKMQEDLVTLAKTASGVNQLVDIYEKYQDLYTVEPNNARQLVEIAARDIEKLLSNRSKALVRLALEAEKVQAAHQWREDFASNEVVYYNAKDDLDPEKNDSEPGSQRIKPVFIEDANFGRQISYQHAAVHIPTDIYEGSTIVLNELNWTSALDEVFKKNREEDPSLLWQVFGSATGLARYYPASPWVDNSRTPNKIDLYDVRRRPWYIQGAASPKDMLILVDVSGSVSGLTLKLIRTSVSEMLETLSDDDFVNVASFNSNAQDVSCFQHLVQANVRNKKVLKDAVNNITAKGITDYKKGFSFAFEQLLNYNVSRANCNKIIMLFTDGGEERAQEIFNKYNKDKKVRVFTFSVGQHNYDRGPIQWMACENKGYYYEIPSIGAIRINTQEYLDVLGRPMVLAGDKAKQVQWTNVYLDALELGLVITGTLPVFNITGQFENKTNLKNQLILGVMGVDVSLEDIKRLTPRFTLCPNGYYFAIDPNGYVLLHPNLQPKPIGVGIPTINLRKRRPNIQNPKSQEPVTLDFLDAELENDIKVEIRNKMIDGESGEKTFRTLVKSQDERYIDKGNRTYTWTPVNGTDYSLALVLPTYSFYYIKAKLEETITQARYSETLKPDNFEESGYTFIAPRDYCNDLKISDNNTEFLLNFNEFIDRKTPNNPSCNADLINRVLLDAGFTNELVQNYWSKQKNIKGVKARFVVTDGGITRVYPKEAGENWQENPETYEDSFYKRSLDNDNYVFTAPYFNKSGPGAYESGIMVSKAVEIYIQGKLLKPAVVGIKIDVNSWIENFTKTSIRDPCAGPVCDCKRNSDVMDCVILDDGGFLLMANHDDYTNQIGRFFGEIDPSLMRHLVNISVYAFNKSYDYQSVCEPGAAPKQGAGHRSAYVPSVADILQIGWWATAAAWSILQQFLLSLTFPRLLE
T1 sequence (P54289 957-1103 partner limits assumed): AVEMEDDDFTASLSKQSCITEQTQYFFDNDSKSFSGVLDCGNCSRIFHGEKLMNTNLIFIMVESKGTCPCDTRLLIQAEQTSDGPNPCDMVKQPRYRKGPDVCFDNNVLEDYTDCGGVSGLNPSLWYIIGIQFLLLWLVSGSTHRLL

SMILES: CC(C)C[C@H](NC(=O)N1CCCCCC1)C(=O)N[C@H](COC(C)(C)C)Cc1ccc(OCc2ccccc2)cc1 (relative stereo) [Example 1, [S-(R*,R*)]-Azepane-1-carboxylic acid {1-[2-(4-benzyloxy-phenyl)-1-tert-butoxymethyl-ethylcarbamoyl]-3-methyl-butyl}-amide]
IC50 (N-type Ca2+ channel): 210 nM
Number of Mice Protected from Tonic Convulsions / number of mice tested (DBA/2 mice; [1]): 1/5
Number of Mice Protected from Tonic Convulsions / number of mice tested (DBA/2 mice; [2]): 4/5
Number of Mice Protected from Tonic Convulsions / number of mice tested (DBA/2 mice; [3]): 2/5
protection (DBA/2 mice): 80%

IC50 (N-type Ca2+ channel): 190 nM
SMILES: CC(C)C[C@@H](CN[C@@H](Cc1ccc(OCc2ccccc2)cc1)C(=O)NC(C)(C)C)NC(=O)N1CCCCCC1 (relative stereo) [Example 2, [S-(R*,R*)]Azepane-1-carboxylic acid (1-{[2-(4-benzyloxy-phenyl)-1-tert-butylcarbamoyl-ethylamino]-methyl}-3-methyl-butyl)-amide dihydrochloride salt]
Number of Mice Protected from Tonic Convulsions / number of mice tested (DBA/2 mice; [1]): 1/5
Number of Mice Protected from Tonic Convulsions / number of mice tested (DBA/2 mice; [2]): 5/5
Number of Mice Protected from Tonic Convulsions / number of mice tested (DBA/2 mice; [3]): 1/5
protection (DBA/2 mice): 100%

IMR32 % @ 1 μM (N-type Ca2+ channel; 1 μM compound, 5 μM nitrendipine): 6% @ 1 μM
IMR32 % @ 10 μM (N-type Ca2+ channel; 10 μM compound, 5 μM nitrendipine): 48% @ 10 μM
melting point: 113 to 114 °C
SMILES: CC(C)C[C@@H](C(=O)N[C@@H](Cc1ccc(OCc2ccccc2)cc1)CN1CCOCC1)N(C)C (relative stereo) [Example 3, [S-(R*,R*)]-2-Dimethylamino-4-methyl-pentanoic acid [2-(4-benzyloxy-phenyl)-1-morpholin-4-ylmethyl-ethyl]-amide]

IC50 (N-type Ca2+ channel): 1200 nM
SMILES: CC(C)C[C@H](NC(=O)N1CCCCCC1)C(=O)N[C@@H](Cc1ccc(OCc2ccccc2)cc1)CN1CCOCC1 (relative stereo) [Example 4, [S-(R*,R*)]-Azepane-1-carboxylic acid {1-[2-(4-benzyloxy-phenyl) -1-morpholin-4-ylmethyl-ethylcarbamoyl]-3-methyl-butyl}-amide]

IC50 (N-type Ca2+ channel): 1100 nM
SMILES: CC(C)C[C@H](NC(=O)N1CCCCCC1)C(=O)N[C@H](CNC(C)(C)C)Cc1ccc(OCc2ccccc2)cc1 (relative stereo) [Example 5, [S-(R*,R*)]Azepane-1-carboxylic acid {1-[2-(4-benzyloxy-phenyl)-1-(tert-butylamino-methyl)-ethylcarbamoyl]-3-methyl-butyl}-amide trifloroacetate salt]

IC50 (N-type Ca2+ channel): 1200 nM
SMILES: CC(C)CC(N)CN[C@@H](Cc1ccc(OCc2ccccc2)cc1)C(=O)NC(C)(C)C (single isomer, unassigned) [Example 7, dihydrochloride]
Number of Mice Protected from Tonic Convulsions / number of mice tested (DBA/2 mice; [4]): 2/5
Number of Mice Protected from Tonic Convulsions / number of mice tested (DBA/2 mice; [5]): 1/5

IC50 (N-type Ca2+ channel): 1000 nM
SMILES: CC(C)CC(N)CN[C@@H](Cc1ccc(OCc2ccccc2)cc1)C(=O)NC(C)(C)C (single isomer, unassigned) [Example 8, 2-(2-Amino-4-methyl-pentylamino)-3-(4-benzyloxy-phenyl)-N-tert-butyl-propionamide dihydrochloride]
Number of Mice Protected from Tonic Convulsions / number of mice tested (DBA/2 mice; [4]): 0/5
Number of Mice Protected from Tonic Convulsions / number of mice tested (DBA/2 mice; [5]): 0/5

IC50 (N-type Ca2+ channel): 1100 nM
SMILES: CCN(CC)C[C@H](Cc1ccc(OCc2ccccc2)cc1)NC(=O)[C@H](CC(C)C)NC(=O)N1CCCCCC1 [Example 6, (S,S)-Azepane-1-carboxylic acid {1-[2-(4-benzyloxy-phenyl)-1-diethylaminomethyl-ethylcarbamoyl]-3-methyl-butyl}-amide]
